Series [1] can be described thus: Drug release from PHA3444 rods in PBS. As to conditions: PHA3444-34%:drug 2:1 rods. Type of series: physicochemical. An excerpt: The paste was then introduced into a mold measuring 150×5×5 mm, and left to dry at ambient temperature.
The mark [2] stands for this setting: PHA4400 loaded 10:1, PBS pH 7.4, 37° C.

The values below come from patent publication US20050025809A1, “Poly-4-hydroxybutyrate matrices for sustained drug delivery” (Tepha, Inc., priority 2003, published 2005).

The structures appear in SMILES notation. Like-named read-outs stand apart in the source and are kept apart here.

`CN(C)[C@@H]1C(O)=C(C(N)=O)C(=O)[C@@]2(O)C(O)=C3C(=O)c4c(O)cccc4[C@@](C)(O)[C@H]3C[C@@H]12` [TCN, Tetracycline (neutral)] displayed an average cumulative release (PHA4400:drug 2:1 rods, PBS pH 7.4, 37° C., at 11 days) of approximately 9% and an average cumulative release in series [1] (PBS pH 7.4, 37° C., at 17 days) of approximately 23%. Further, the “burst of release” value under setting [2] was “no burst” and the “burst of release” value in series [1] was “No burst of release was observed”. Further, the “release order” value under setting [2] was “almost perfect zero order release after the first hour”. Where the note is “PHA4400 loaded 10:1, in fifteen days”, this molecule gave a total release of 17%.
